Test results as given in the supplement of paper PMC11061612.

Tests used:
Test in all cases: combination Emax (second highest fraction inhibited in the dose matrix, 72 h); higher = more inhibition; extreme values may be limits of the assay
[1] = tested on: ECC10 (Gastric Carcinoma)
Outline: (§1)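 Cell lines in DMEM/F12 or RPMI with 10% FBS were plated in 1536-well plates, held 24 hours at 37°C, 5% CO2, then given two-drug dose matrices for 72 hours (DMSO typically 0.2%). Viability was read by CellTiter-Glo 2.0 luminescence and scaled as inhibition from 0 (vehicle wells) to 1 (blank wells). Combination Emax is the second-highest inhibition in the matrix; Bliss excess is observed combination effect minus expected EA + EB − EA·EB, EA and EB being single-agent effects.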

[2] = tested on: A3-KAW (B-Cell Non-Hodgkin's Lymphoma)
Outline: as §1

[3] = tested on: NCI-H1650 (Lung Adenocarcinoma)
Outline: as §1

[4] = tested on: TT (Thyroid Gland Carcinoma)
Outline: as §1

[5] = tested on: VCaP (Prostate Carcinoma)
Outline: as §1

[6] = tested on: NY (Osteosarcoma)
Outline: as §1

[7] = tested on: SK-MES-1 (Squamous Cell Lung Carcinoma)
Outline: as §1

[8] = tested on: NCI-H1666 (Lung Adenocarcinoma)
Outline: as §1

[9] = tested on: NCI-H64 (Small Cell Lung Carcinoma)
Outline: as §1

[10] = tested on: NCI-H2066 (Squamous Cell Lung Carcinoma)
Outline: as §1

[11] = tested on: NCI-H2591 (Mesothelioma)
Outline: as §1

[12] = tested on: ARH-77 (Non-Cancerous)
Outline: as §1

[13] = tested on: FU97 (Gastric Carcinoma)
Outline: as §1

[14] = tested on: OS-RC-2 (Kidney Carcinoma)
Outline: as §1

[15] = tested on: ONS-76 (Other Solid Carcinomas)
Outline: as §1

[16] = tested on: SISO (Cervical Carcinoma)
Outline: as §1

[17] = tested on: COLO-320-HSR (Colorectal Carcinoma)
Outline: as §1

[18] = tested on: SK-MG-1 (Low Grade Glioma)
Outline: as §1

[19] = tested on: HCC1954 (Breast Carcinoma)
Outline: as §1

[20] = tested on: NCI-H1693 (Lung Adenocarcinoma)
Outline: as §1

Compound	combination Emax [1]	combination Emax [2]	combination Emax [3]	combination Emax [4]	combination Emax [5]	combination Emax [6]	combination Emax [7]	combination Emax [8]	combination Emax [9]	combination Emax [10]	combination Emax [11]	combination Emax [12]	combination Emax [13]	combination Emax [14]	combination Emax [15]	combination Emax [16]	combination Emax [17]	combination Emax [18]	combination Emax [19]	combination Emax [20]
Cc1nc(Nc2ncc(C(=O)Nc3c(C)cccc3Cl)s2)cc(N2CCN(CCO)CC2)n1 [Dasatinib] + CC(=O)Nc1cccc(-n2c(=O)n(C3CC3)c(=O)c3c(Nc4ccc(I)cc4F)n(C)c(=O)c(C)c32)c1 [Trametinib] (first compound max 2 µM, 7x7, partner max 1 µM)	0.856	0.464	0.419	0.441	0.0632	0.738	0.941	0.651	0.185	0.402	0.527	0.635	0.422	0.353	0.888	0.157	0.15	0.65	0.279	0.699
COc1cccc2c1C(=O)c1c(O)c3c(c(O)c1C2=O)C[C@@](O)(C(=O)CO)C[C@@H]3O[C@H]1C[C@H](N)[C@H](O)[C@H](C)O1 [Doxorubicin] + Cc1cc2ncnn2cc1Nc1ncc2c(n1)n(C1CCOCC1)c(=O)n2C [AZD7648] (first compound max 1 µM, 7x7, partner max 10 µM)	1	0.984	0.591	0.604	0.641	0.581	0.686	0.825	0.606	0.262	0.693	0.972	0.59	0.348	0.935	0.909	0.464	0.802	0.729	0.405
COc1cc2ncnc(Nc3ccc(F)c(Cl)c3)c2cc1OCCCN1CCOCC1 [Gefitinib] + CC(C)n1c(=O)n(C)c2cnc3cc(F)c(-c4ccc(OCCCN5CCCCC5)nc4)cc3c21 [AZD1390] (first compound max 10 µM, 7x7, partner max 0.3 µM)	0.12	0.605	0.236	0.118	0.0675	0.239	0.408	0.484	0.152	0.384	0.0235	0.272	0.149	0.145	0.11	0.0311	0.19	0.072	0.267	0.419
CS(=O)(=O)CCNCc1ccc(-c2ccc3ncnc(Nc4ccc(OCc5cccc(F)c5)c(Cl)c4)c3c2)o1 [Lapatinib] + C[C@@H](Oc1cc(-c2cnn(C3CCNCC3)c2)cnc1N)c1c(Cl)ccc(F)c1Cl [Crizotinib] (first compound max 10 µM, 7x7, partner max 10 µM)	0.97	0.968	0.799	0.409	0.465	0.341	0.966	0.833	0.823	0.58	0.572	0.942	0.81	0.584	0.73	0.626	0.894	0.9	0.91	0.883
CC(=O)c1c(C)c2cnc(Nc3ccc(N4CCNCC4)cn3)nc2n(C2CCCC2)c1=O [Palbociclib] + CC1(C)CCC(CN2CCN(c3ccc(C(=O)NS(=O)(=O)c4ccc(NCC5CCOCC5)c([N+](=O)[O-])c4)c(Oc4cnc5[nH]ccc5c4)c3)CC2)=C(c2ccc(Cl)cc2)C1 [Venetoclax] (first compound max 10 µM, 7x7, partner max 1 µM)	0.915	0.826	0.131	0.295	0.164	0.0868	0.208	0.177	0.17	0.184	0.237	0.725	0.161	0.155	0.364	0.0637	0.15	0.282	0	0.33
CC(=O)c1c(C)c2cnc(Nc3ccc(N4CCNCC4)cn3)nc2n(C2CCCC2)c1=O [Palbociclib] + Cc1c2c(nn1C)CSCc1cc(n(C)n1)CSc1cc(c3ccccc3c1)OCCCc1c(C(=O)O)n(C)c3c-2c(Cl)ccc13 [AZD5991] (first compound max 10 µM, 7x7, partner max 1 µM)	0.911	1	0.195	0.419	0.855	0.534	0.266	0.236	0.213	0.198	0.279	0.556	0.222	0.232	0.357	0.127	0.965	0.3	0.712	0.431
CC(=O)c1c(C)c2cnc(Nc3ccc(N4CCNCC4)cn3)nc2n(C2CCCC2)c1=O [Palbociclib] + Cn1cnc2c(F)c(Nc3ccc(Br)cc3Cl)c(C(=O)NOCCO)cc21 [Selumetinib] (first compound max 10 µM, 7x7, partner max 10 µM)	0.539	0.869	0.15	0.349	0.159	0.194	0.645	0.49	0.19	0.244	0.288	0.61	0.377	0.235	0.734	0.17	0.177	0.344	0.178	0.38
COc1cccc(OCCCN)c1-c1cc(Nc2cnc(C#N)cn2)n[nH]1 [Prexasertib] + C=CCn1c(=O)c2cnc(Nc3ccc(N4CCN(C)CC4)cc3)nc2n1-c1cccc(C(C)(C)O)n1 [AZD1775] (first compound max 1 µM, partner max 1 µM)	0.904	1	0.6	0.759	0.774	0.663	0.777	0.431	0.925	0.621	0.472	0.996	0.367	0.519	0.829	0.891	0.86	0.908	0.963	0.461
COc1cccc(OCCCN)c1-c1cc(Nc2cnc(C#N)cn2)n[nH]1 [Prexasertib] + CCc1c2c(nc3ccc(O)cc13)-c1cc3c(c(=O)n1C2)COC(=O)[C@]3(O)CC [SN-38] (first compound max 1 µM, 7x7, partner max 0.3 µM)	1	1	0.778	0.916	0.748	0.935	0.953	0.643	0.95	0.5	0.791	1	0.423	0.431	0.867	0.972	0.838	0.982	0.929	0.925
COc1cccc(OCCCN)c1-c1cc(Nc2cnc(C#N)cn2)n[nH]1 [Prexasertib] + CN(C)CCCOc1ccc(-c2ccc3ncc4c(c3c2)n(C2CCOCC2)c(=O)n4C)cn1 [AZD0156] (first compound max 1 µM, 7x7, partner max 1 µM)	0.671	1	0.51	0.676	0.741	0.62	0.77	0.35	0.787	0.402	0.305	1	0.386	0.498	0.862	0.745	0.691	0.843	0.862	0.398
COc1cccc(OCCCN)c1-c1cc(Nc2cnc(C#N)cn2)n[nH]1 [Prexasertib] + C[C@@H]1COCCN1C2=NC(=NC(=C2)C3(CC3)[S@](=N)(=O)C)C4=C5C=CNC5=NC=C4 [AZD6738] (first compound max 1 µM, 7x7, partner max 10 µM)	0.712	1	0.519	0.662	0.718	0.637	0.842	0.463	0.835	0.454	0.519	1	0.308	0.483	0.903	0.798	0.726	0.802	0.878	0.389
COc1cccc(OCCCN)c1-c1cc(Nc2cnc(C#N)cn2)n[nH]1 [Prexasertib] + Cc1cc2ncnn2cc1Nc1ncc2c(n1)n(C1CCOCC1)c(=O)n2C [AZD7648] (first compound max 1 µM, 7x7, partner max 10 µM)	0.671	1	0.55	0.611	0.729	0.674	0.804	0.334	0.846	0.437	0.415	0.994	0.367	0.469	0.862	0.759	0.669	0.826	0.843	0.483
COc1cccc(OCCCN)c1-c1cc(Nc2cnc(C#N)cn2)n[nH]1 [Prexasertib] + O=C(c1cc(Cc2n[nH]c(=O)c3ccccc23)ccc1F)N1CCN(C(=O)C2CC2)CC1 [Olaparib] (first compound max 1 µM, 7x7, partner max 10 µM)	0.728	1	0.494	0.59	0.797	0.652	0.834	0.26	0.835	0.316	0.21	0.969	0.299	0.475	0.793	0.803	0.522	0.904	0.866	0.357
